Data reported in patent publication US9212144B2, “2-aminoquinoline-based compounds for potent and selective neuronal nitric oxide synthase inhibition” (priority 2014, dated 2015).
Values joined by “and” are separate entries in the source; they are usually repeats but may differ in a detail not shown here. Equal entries are not always repeated. Structures can show the parent of a compound that is named as a salt. Where two headings read alike, the source gives them in different places.

Columns and labels:
rat nNOS = rat nNOS (Rattus norvegicus (Rat), UniProt P29476); assay: Purified NOS enzyme assay (hemoglobin capture), rat nNOS; type: biochemical
bovine eNOS = bovine eNOS (Bos taurus (Bovine), UniProt P29473); assay: Purified NOS enzyme assay (hemoglobin capture), bovine eNOS; type: biochemical; conditions: for Ki: bovine eNOS, Ki calculated from IC50, average of at least two replicates; for Selectivity n/e: ratio of respective Ki values (eNOS/nNOS)
murine macrophage iNOS = murine macrophage iNOS (Mus musculus (Mouse), UniProt P29477); conditions: for Selectivity n/i: ratio of respective Ki values (iNOS/nNOS); for Ki: read-out: Ki iNOS, murine iNOS, Ki calculated from IC50, average of at least two replicates
human nNOS = human nNOS (Homo sapiens (Human), UniProt P29475); assay: Purified NOS enzyme assay (hemoglobin capture), human nNOS; type: biochemical
Caco-2 cells = conditions: background statement on prior art compound; cited from earlier work
newborn rabbit kits = conditions: administered intravenously to the dam; cited from earlier work
[1] = rat nNOS, Ki calculated from IC50, average of at least two replicates, read-out: Ki nNOS

| Structure (SMILES) | Ki (rat nNOS; [1]) [µM] | Ki (bovine eNOS) [µM] | Selectivity n/e (bovine eNOS) | Selectivity n/i (murine macrophage iNOS) | Ki (murine macrophage iNOS) [µM] | other results |
| --- | --- | --- | --- | --- | --- | --- |
| Nc1ccc2cc(CNCCc3cccc(F)c3)ccc2n1 [Compound 10, 6-[(3-Fluorophenethylamino)methyl]quinolin-2-amine Dihydrochloride] | > 5.7 | – | – | – | – | – |
| Cl.Cl.Nc1ccc2ccc(CCNCc3cccc(F)c3)cc2n1 [Compound 6, 7-[2-(3-Fluorobenzylamino)ethyl]quinolin-2-amine Dihydrochloride] | 0.254 | 7.77 | 30 | 97 | 24.5 | – |
| Nc1ccc2cc(CCNCc3cccc(F)c3)ccc2n1 [Compound 11, 6-[2-(3-Fluorobenzylamino)ethyl]quinolin-2-amine Dihydrochloride] | > 5.7 | – | – | – | – | – |
| Cl.Cl.Nc1ccc2ccc(CNCCc3cccc(F)c3)cc2n1 [Compound 5, 7-[(3-Fluorophenethylamino)methyl]quinolin-2-amine Dihydrochloride] | – | 0.485 | 6.2 | 124 | 9.14 | Ki (rat nNOS; purified nNOS, read-out: inhibition of nNOS): 0.074 µM; Ki (rat nNOS; rat nNOS, Ki calculated from IC50, average of at least two replicates, Dihydrochloride, read-out: Ki nNOS): 0.075 µM and 0.074 µM; selectivity for nNOS over eNOS (bovine eNOS): approximately 6 fold; Ki (human nNOS; human nNOS, Ki calculated from IC50, average of at least two replicates): 0.493 µM; Selectivity (Rat/Human) (human nNOS; ratio of respective Ki values, Ki-human/Ki-rat): 6.7 |
| [H]/N=C(/Nc1cccc(CNCCc2cccc(F)c2)c1)c1cccs1 [Compound 3] | – | – | – | – | – | Caco-2 permeability (Caco-2 cells): poor |
| Nc1ccc2cc(CCNCCc3cccc(F)c3)ccc2n1 [Compound 12, 6-[(3-Fluorophenethylamino)ethyl]quinolin-2-amine Dihydrochloride] | > 5.7 | – | – | – | – | – |
| Cl.Cl.Nc1ccc2ccc(CNCCCc3cccc(F)c3)cc2n1 [Compound 9] | – | – | 62 | 538 | – | – |
| Cl.Cl.Nc1ccc2ccc(CCNCCc3ccc(Cl)cc3)cc2n1 [Compound 16, 7-[(4-Chlorophenethylamino)ethyl]quinolin-2-amine Dihydrochloride] | 0.212 | 9.89 | 47 | 91 | 19.2 | – |
| Cl.Cl.Nc1ccc2ccc(CCNCCc3ccc(F)cc3)cc2n1 [Compound 14, 7-[(4-Fluorophenethylamino)ethyl]quinolin-2-amine Dihydrochloride] | 0.183 | 8.86 | 37 | 280 | 51.2 | – |
| Cl.Cl.Nc1ccc2ccc(CNCCCc3cccc(F)c3)cc2n1 [Compound 9, 7-{2-[3-(3-Fluorophenyl(propylamino)methyl]}quinolin-2-amine Dihydrochloride] | 0.06 | 3.69 | – | – | 32.3 | – |
| Cc1cc(N)nc(C[C@@H]2CNC[C@@H]2NCCNCCc2cccc(F)c2)c1 [Compound 1] | – | – | – | – | – | effect on hypoxic-ischemic brain damage phenotype (newborn rabbit kits): reverses a hypoxic-ischemic brain damage phenotype |
